Test results taken from patent US20160199351A1, “COMPOSITIONS AND METHODS FOR INHIBITING FUNGAL INFECTIONS” (priority 2015, published 2016).
Values after ≈ are worked out from the molar mass of the structure shown. Like-named read-outs stand apart in the source and are kept apart here.

Assays:
Pneumocystis carinii = assay: In vitro ATP content of Pneumocystis (luciferin-luciferase assay)
Pneumocystis murina = assay: as above
C. guilliermondii = assay: MIC against Candida species (Table 4); details: Meyerozyma guilliermondii, 24 h
Cryptococcus neoformans = assay: MIC against Cryptococcus neoformans (Table 4); details: Cryptococcus neoformans, 72 h
Histoplasma capsulatum = format: cell-based; details: 24-hour treatment
C. parapsilosis = assay: MIC against Candida species (Table 4); details: 24 h
C. krusei = assay: MIC against Candida species (Table 4); details: Pichia kudriavzevii, 24 h
C. glabrata = assay: MIC against Candida species (Table 4); details: Nakaseomyces glabratus, 24 h
Rhizopus oryzae [1] = assay: MIC, CLSI M38-A2 broth dilution (Table 1); format: cell-based
Rhizopus oryzae [2] = assay: MIC (Table 5); details: Rhizopus arrhizus, 24 h
Scedosporium apiospermum = assay: MIC, CLSI M38-A2 broth dilution (Table 1); format: cell-based
Apophysomyces = assay: MIC (Table 5); details: 24 h
Lomentospora prolificans = assay: MIC, CLSI M38-A2 broth dilution (Table 1); format: cell-based; details: isolate LP1, 48 hours
P. variotii = assay: MIC (Table 5); details: Paecilomyces variotii, read-out: MIC 100%
Paeceilomyces variotii = assay: MIC, CLSI M38-A2 broth dilution (Table 1); format: cell-based; details: isolate QC
Fusarium oxysporum = assay: MIC, CLSI M38-A2 broth dilution (Table 1); format: cell-based
Blastomyces dermatitidis [3] = assay: MIC (Table 6); format: cell-based; details: read-out: MIC VORI 100% 50%
Fusarium sp. = assay: MIC (Table 5); format: cell-based; details: Fusarium, read-out: MIC 100%
Scedosporium sp. = assay: MIC (Table 5)
Fusarium solani = assay: MIC, CLSI M38-A2 broth dilution (Table 1); format: cell-based; details: isolate FS1, 48 hours
Blastomyces dermatitidis [4] = assay: MIC, macrodilution method (Table 1); format: cell-based; details: 96 hours
Aspergillus fumigatus = assay: Recovery of Aspergillus fumigatus mycelia growth after removal of antifungal drugs (MTT); format: cell-based; details: treated 12 hours, drug removed, 24 hours more
Coccidioides sp. = assay: microbe, parasite or virus in culture; format: cell-based; details: Coccidioides

With `CC1(C)S[C@@H]2[C@H](NC(=O)[C@H](N)c3ccccc3)C(=O)N2[C@H]1C(=O)O` [Ampicillin, ampicillin, reference compound] the “Pm % Reduction in ATP/Vehicle Control” value (Pneumocystis carinii; Table 2, 10 μg/ml, 24 hours) was 0%, the “Pm % Reduction in ATP/Vehicle Control” value (Pneumocystis carinii; Table 2, 10 μg/ml, 48 hours) was 0% and the “Pm % Reduction in ATP/Vehicle Control” value (Pneumocystis carinii; Table 2, 10 μg/ml, 72 hours) was 0%. For the same molecule, the “Pm % Reduction in ATP/Vehicle Control” value (Pneumocystis murina; Table 3, 10 μg/ml, 24 hours) was 0%, the “Pm % Reduction in ATP/Vehicle Control” value (Pneumocystis murina; Table 3, 10 μg/ml, 48 hours) was 0% and the “Pm % Reduction in ATP/Vehicle Control” value (Pneumocystis murina; Table 3, 10 μg/ml, 72 hours) was 0%.
`OC(Cn1cncn1)(Cn1cncn1)c1ccc(F)cc1F` [FLU, Fluconazole, reference compound] gave an MIC50 (C. guilliermondii; isolate Cgu-1, 24 hrs) of 8 µg/mL (≈ 26.1 µM), an MIC50 (C. guilliermondii; isolate Cgu-2, 24 hrs) of 2 µg/mL (≈ 6.53 µM) and an MIC50 (C. guilliermondii; isolate Cgu-3, 24 hrs) of 1 µg/mL (≈ 3.27 µM). It also gave an MIC50 (C. guilliermondii; isolate Cgu-4, 24 hrs) of 1 µg/mL (≈ 3.27 µM), an MIC50 (C. guilliermondii; isolate Cgu-5, 24 hrs) of 2 µg/mL (≈ 6.53 µM) and an MIC50 (C. guilliermondii; isolate Cgu-6, 24 hrs) of 8 µg/mL (≈ 26.1 µM). For the same molecule, the MIC50 (C. guilliermondii; isolate Cgu-7, 24 hrs) was 4 µg/mL (≈ 13.1 µM), the MIC50 (Cryptococcus neoformans; isolate CN-1, 72 hrs) was 4 µg/mL (≈ 13.1 µM) and the MIC50 (Cryptococcus neoformans; isolate CN-2, 72 hrs) was 12 µg/mL (≈ 39.2 µM). The MIC50 (Cryptococcus neoformans; isolate CN-3, 72 hrs) was 64 µg/mL (≈ 209 µM), the “reduction of fungal viability” value (Histoplasma capsulatum; then growth in absence of drug) was “did not significantly reduce fungal viability” and the “viability staining of yeasts” value (Histoplasma capsulatum; ethidium bromide / fluorescein staining) was “only fungistatic”. For the same molecule, the MIC50 (C. parapsilosis; isolate CP-1, 24 hrs) was 0.25 µg/mL (≈ 0.816 µM), the MIC50 (C. parapsilosis; isolate CP-2, 24 hrs) was ≤ 0.125 µg/mL and the MIC50 (C. parapsilosis; isolate CP-3, 24 hrs) was 0.25 µg/mL (≈ 0.816 µM). The MIC50 (C. parapsilosis; isolate CP-4, 24 hrs) was 0.25 µg/mL (≈ 0.816 µM), the MIC50 (C. parapsilosis; isolate CP-5, 24 hrs) was ≤ 0.125 µg/mL and the MIC50 (C. parapsilosis; isolate CP-6, 24 hrs) was 16 µg/mL (≈ 52.2 µM). It also gave an MIC50 (C. parapsilosis; isolate CP-7, 24 hrs) of 16 µg/mL (≈ 52.2 µM), an MIC50 (C. parapsilosis; isolate QC) of 1 µg/mL (≈ 3.27 µM) and an MIC50 (C. krusei) of 8 µg/mL (≈ 26.1 µM). It also gave an MIC50 (C. glabrata; isolate CG-1, 24 hrs) of 16 µg/mL (≈ 52.2 µM), an MIC50 (C. glabrata; isolate CG-2, 24 hrs) of 16 µg/mL (≈ 52.2 µM) and an MIC50 (C. glabrata; isolate CG-3, 24 hrs) of 32 µg/mL (≈ 104 µM). The MIC50 (C. glabrata; isolate CG-4, 24 hrs) was 32 µg/mL (≈ 104 µM), the MIC50 (C. glabrata; isolate CG-5, 24 hrs) was 16 µg/mL (≈ 52.2 µM) and the MIC50 (C. glabrata; isolate CG-6, 24 hrs) was 2 µg/mL (≈ 6.53 µM). For the same molecule, the MIC50 (C. glabrata; isolate CG-7, 24 hrs) was 2 µg/mL (≈ 6.53 µM), the MIC50 (C. glabrata; isolate CG-8, 24 hrs) was 2 µg/mL (≈ 6.53 µM) and the MIC50 (C. glabrata; isolate CG-9, 24 hrs) was 2 µg/mL (≈ 6.53 µM). For the same molecule, the MIC50 (C. glabrata; isolate CG-10, 24 hrs) was 4 µg/mL (≈ 13.1 µM).
For `CC[C@@H]([C@H](C)O)n1ncn(-c2ccc(N3CCN(c4ccc(OC[C@@H]5CO[C@@](Cn6cncn6)(c6ccc(F)cc6F)C5)cc4)CC3)cc2)c1=O` [POS, Posaconazole, reference compound], the “MIC 100%” value (Rhizopus oryzae [1]; isolate RO1, 24 hours) was 1 gg/m1, the “MIC 100%” value (Rhizopus oryzae [1]; isolate RO2, 24 hours) was 1 gg/m1 and the “MIC 100%” value (Rhizopus oryzae [1]; isolate RO3, 24 hours) was 1 gg/m1. The MIC (Rhizopus oryzae [2]; read-out: MIC 100%, isolate R-1, 24 hrs) was 0.5 µg/mL (≈ 0.713 µM), the MIC (Rhizopus oryzae [2]; read-out: MIC 100%, isolate R-2, 24 hrs) was 0.5 µg/mL (≈ 0.713 µM) and the MIC (Rhizopus oryzae [2]; read-out: MIC 100%, isolate R-3, 24 hrs) was 0.5 µg/mL (≈ 0.713 µM). The MIC (Rhizopus oryzae [2]; read-out: MIC 100%, isolate R-4, 24 hrs) was 0.125 µg/mL (≈ 0.178 µM), the MIC (Rhizopus oryzae [2]; read-out: MIC 100%, isolate R-5, 24 hrs) was 0.25 µg/mL (≈ 0.357 µM) and the MIC (Rhizopus oryzae [2]; read-out: MIC 100%, isolate R-6, 24 hrs) was 0.125 µg/mL (≈ 0.178 µM). For the same molecule, the “MIC 100%” value (Scedosporium apiospermum; isolate SA2, 72 hours) was 2 gg/m1, the MIC (Apophysomyces; read-out: MIC 100%, isolate AE-1, 24 hrs) was 0.125 µg/mL (≈ 0.178 µM) and the MIC (Apophysomyces; read-out: MIC 100%, isolate AE-2, 24 hrs) was 1 µg/mL (≈ 1.43 µM). For the same molecule, the “MIC 100%” value (Lomentospora prolificans) was 0.5 gg/m1, the MIC (P. variotii; 24 h) was 0.06 µg/mL (≈ 0.0856 µM) and the “MIC 100%” value (Paeceilomyces variotii) was 0.25 gg/m1.
With `N=C(N)c1ccc(OCCCCCOc2ccc(C(=N)N)cc2)cc1` [Pent., pentamidine isethionate, reference compound] the “Pm % Reduction in ATP/Vehicle Control” value (Pneumocystis carinii; Table 2, 1 μg/ml, 24 hours) was 74.18%, the “Pm % Reduction in ATP/Vehicle Control” value (Pneumocystis carinii; Table 2, 1 μg/ml, 48 hours) was 97.06% and the “Pm % Reduction in ATP/Vehicle Control” value (Pneumocystis carinii; Table 2, 1 μg/ml, 72 hours) was 97.47%. The “Pm % Reduction in ATP/Vehicle Control” value (Pneumocystis murina; Table 3, 1 μg/ml, 24 hours) was 72.06%, the “Pm % Reduction in ATP/Vehicle Control” value (Pneumocystis murina; Table 3, 1 μg/ml, 48 hours) was 87.94% and the “Pm % Reduction in ATP/Vehicle Control” value (Pneumocystis murina; Table 3, 1 μg/ml, 72 hours) was 93.85%.
`C[C@@H](c1ncncc1F)[C@](O)(Cn1cncn1)c1ccc(F)cc1F` [VORI, Voriconazole, reference compound] was tested, and the “MIC 100%” value (Fusarium oxysporum; isolate FO1, 48 hours) was 16 gg/m1, the “MIC 100%” value (Fusarium oxysporum; isolate FO2, 48 hours) was 16 gg/m1 and the MIC (Blastomyces dermatitidis [3]; isolate BD1, 72/192 hrs) was ≤ 0.03 µg/mL. It also gave an MIC (Blastomyces dermatitidis [3]; isolate BD2, 72/192 hrs) of 0.125 µg/mL (≈ 0.358 µM), an MIC (Blastomyces dermatitidis [3]; isolate BD3, 72/192 hrs) of 0.125 µg/mL (≈ 0.358 µM) and an MIC (Fusarium sp.; isolate F-1, 48/72 hrs) of 8 µg/mL (≈ 22.9 µM). The MIC (Fusarium sp.; isolate F-2, 48/72 hrs) was 8 µg/mL (≈ 22.9 µM), the MIC (Fusarium sp.; isolate F-3, 48/72 hrs) was > 16 µg/mL and the MIC (Scedosporium sp.; read-out: MIC 100%, isolate S-1, 48/72 hrs) was 0.5 µg/mL (≈ 1.43 µM). The MIC (Scedosporium sp.; read-out: MIC 100%, isolate S-2, 48/72 hrs) was 16 µg/mL (≈ 45.8 µM), the “MIC 100%” value (Fusarium solani) was 8 gg/m1 and the “MIC 100%” value (Blastomyces dermatitidis [4]; isolate BD1, macrodilution) was 0.125 gg/m1. For the same molecule, the “MIC 100%” value (Blastomyces dermatitidis [4]; isolate BD2, macrodilution) was “≦0.03 gg/m1”, the “MIC 100%” value (Blastomyces dermatitidis [4]; isolate BD3, macrodilution) was “≦0.03 gg/m1” and the “MIC 100%” value (Scedosporium apiospermum; isolate SA1, 72 hours) was 0.25 gg/m1. The “MIC 100%” value (Scedosporium apiospermum; isolate SA2, 72 hours) was 0.125 gg/m1, the “recovery of mycelia growth after removal of drug” value (“recovery of mycelia growth” below) (Aspergillus fumigatus) was “leaves mycelia viable” and the “MIC 100%” value (Lomentospora prolificans) was 16 gg/m1. The MIC (Coccidioides sp.; read-out: MIC VORI 100% 50%, isolate COCCI-1, 72/192 hrs) was 0.125 µg/mL (≈ 0.358 µM), the MIC (Coccidioides sp.; read-out: MIC VORI 100% 50%, isolate COCCI-2, 72/192 hrs) was 0.25 µg/mL (≈ 0.716 µM) and the MIC (Coccidioides sp.; read-out: MIC VORI 100% 50%, isolate COCCI-3, 72/192 hrs) was 0.125 µg/mL (≈ 0.358 µM). The MIC (P. variotii) was 0.06 µg/mL (≈ 0.172 µM) and the “MIC 100%” value (Paeceilomyces variotii) was 0.125 gg/m1.
With `C[C@@H]1[C@H](O)[C@@H](C)/C=C/C=C/C=C/C=C/C=C/C=C/C=C/[C@H](O[C@@H]2O[C@H](C)[C@@H](O)[C@H](N)[C@@H]2O)C[C@@H]2O[C@](O)(C[C@@H](O)C[C@@H](O)[C@H](O)CC[C@@H](O)C[C@@H](O)CC(=O)O[C@H]1C)C[C@H](O)[C@H]2C(=O)O` [amphotericin B] the “recovery of mycelia growth” value (Aspergillus fumigatus) was “no viable Aspergillus fumigatus mycelia”.
In the case of `CC[C@H](C)C[C@H](C)CCCCCCCCC(=O)N[C@H]1C[C@@H](O)[C@@H](NCCN)NC(=O)[C@@H]2[C@@H](O)CCN2C(=O)[C@H]([C@H](O)CCN)NC(=O)[C@H]([C@H](O)[C@@H](O)c2ccc(O)cc2)NC(=O)[C@@H]2C[C@@H](O)CN2C(=O)[C@H]([C@@H](C)O)NC1=O` [caspofungin], the “recovery of mycelia growth” value (Aspergillus fumigatus) is reported as “leaves mycelia viable”.
